{"source": "patent US20250339409A1", "about": "“USES OF PAN BET INHIBITORS” (VYNE THERAPEUTICS INC., priority 2021, published 2025)", "tested_on": "back skin of healthy mice", "assay": "Tolerance assessment of BETi1 0.01% and 1.0% in healthy (non-induced) mice", "assay_type": "in vivo", "conditions": "for Modified PASI Mean score values / PASI Mean score values: female, Balb/c", "procedure": "Thirty-six (36) female Balb/c mice are weighed and randomly divided into 9 groups (n=4) according to body weight on D1. For mice of native group 1 and tolerance groups 8 and 9, no induction of psoriasis is performed between D1 and D13. Psoriasis is induced in groups 2 to 7 by once daily topical application for 13 days (from day 1 to day 13) of 65 mg of Aldara™ cream (5.0% imiquimod) onto the shaved and epilated back of mice. Before the first treatment, a second randomization of mice of the 6 imiquimod-induced psoriasis groups is performed according to the severity of psoriasis (PASI), and also the body weight of mice. Starting on day 7 and until day 13, 100 mg of test formulations […] and 65 mg of vehicle (groups 1 and […]) are topically administered once daily for 7 consecutive days onto the shaved back skin of mice. Several measurements are taken during treatment period from day 7 to day 14: psoriasis index (PASI), body weight, use of enrichment and mortality. At the end of treatment period, TEWL is assessed, and blood and skin samples are collected. Histological analysis of skin samples is used for microscopic scoring of psoriasis and the determination of the thickness of parakeratosis and epidermis and blood analysis is used for assessing the level of proinflammatory biomarkers (cytokines assays). The effect of treatment of psoriasis induced mice with BETi formulations at the four dose levels are compared with Dermoval® cream containing 0.05% clobetasol propionate (reference) and vehicle (positive control) and also with healthy mice treated with vehicle (negative control).\nThe tolerance assessment to treatments with 0.01% and 1.0% BETi is performed daily during the treatment period (D7 to D13) as well as on the day mice are sacrifice (D14), and takes into account the following 5 parameters:\nThe presence of erythema on the skin with the following scoring grid: • 0=no or no more erythema on the skin, • 1=weak erythema on the skin, • 2=moderate erythema on the skin, • 3=important erythema on the skin, • 4=severe erythema on the skin.\nThe presence of induration of the skin with the following scoring grid: • 0=no or no more induration of the skin, • 1=weak induration of the skin, • 2=moderate induration of the skin, • 3=important induration of the skin, • 4=severe induration of the skin.\nThe presence of ulceration of the skin with the following scoring grid: • 0=no or no more ulceration of the skin, • 1=weak ulceration of the skin, • 2=moderate ulceration of the skin, • 3=important ulceration of the skin, • 4=severe ulceration of the skin.\nThe presence of necrosis of the skin with the following scoring grid: • 0=no or no more necrosis of the skin, • 1=weak necrosis of the skin, • 2=moderate necrosis of the skin, • 3=important necrosis of the skin, • 4=severe necrosis of the skin.\nThe presence of peeling of the skin with the following scoring grid: • 0=no or no more peeling of the skin, • 1=weak peeling of the skin, • 2=moderate peeling of the skin, • 3=important peeling of the skin, • 4=severe peeling of the skin.\nThe investigation addressed, amongst other things, the effect of the different BETi1 concentrations (0.001%, 0.01%, 0.1% and 1.0%) on various parameters. Tolerance was tested at two BETi1 concentrations (0.01% and 1%) in healthy mice.", "data": [{"smiles": "Cn1cc(-c2cccc(O)c2Oc2ccccc2)c2cc[nH]c2c1=O", "note": "[BETi1]", "values": [{"measurement": "Body weight, individual mouse", "setting": "Tolerance, healthy mice, D 1, listed as BETi1 1.0%", "result": 18.49}, {"measurement": "Mean body weights", "setting": "Tolerance, healthy mice, D 11, listed as BETi1 1.0%", "result": 18.97}, {"measurement": "Body weight, individual mouse", "setting": "Tolerance, healthy mice, D 14, listed as BETi1 1.0%", "result": 19.58}, {"measurement": "Modified PASI Mean score values", "setting": "mouse, in vivo", "result": 0.00}, {"measurement": "Modified PASI Mean score values", "setting": "mouse, in vivo, 1 study day", "result": 0.00}, {"measurement": "PASI Mean score values", "setting": "mouse, in vivo, 2 study day", "result": 0.00}, {"measurement": "PASI Mean score values", "setting": "mouse, in vivo, 3 study day", "result": 0.00}, {"measurement": "PASI Mean score values", "setting": "mouse, in vivo, 4 study day", "result": 0.00}, {"measurement": "PASI Mean score values", "setting": "mouse, in vivo, 5 study day", "result": 0.00}, {"measurement": "PASI Mean score values", "setting": "mouse, in vivo, 6 study day", "result": 0.00}, {"measurement": "PASI Mean score values", "setting": "mouse, in vivo, 7 study day", "result": 0.00}, {"measurement": "PASI Mean score values", "setting": "mouse, in vivo, 8 study day", "result": 0.00}, {"measurement": "Modified PASI Mean score values", "setting": "mouse, in vivo, 9 study day", "result": 0.00}, {"measurement": "PASI Mean score values", "setting": "mouse, in vivo, 9 study day", "result": 0.00}, {"measurement": "Modified PASI Mean score values", "setting": "mouse, in vivo, 10 study day", "result": 0.00}, {"measurement": "PASI Mean score values", "setting": "mouse, in vivo, 10 study day", "result": 0.00}, {"measurement": "Modified PASI Mean score values", "setting": "mouse, in vivo, 11 study day", "result": 0.00}, {"measurement": "PASI Mean score values", "setting": "mouse, in vivo, 11 study day", "result": 0.00}, {"measurement": "Modified PASI Mean score values", "setting": "mouse, in vivo, 12 study day", "result": 0.00}, {"measurement": "PASI Mean score values", "setting": "mouse, in vivo, 12 study day", "result": 0.00}, {"measurement": "Modified PASI Mean score values", "setting": "mouse, in vivo, 13 study day", "result": 0.00}, {"measurement": "PASI Mean score values", "setting": "mouse, in vivo, 13 study day", "result": 0.00}, {"measurement": "Modified PASI Mean score values", "setting": "mouse, in vivo, 14 study day", "result": 0.00}, {"measurement": "PASI Mean score values", "setting": "mouse, in vivo, 14 study day", "result": 0.00}, {"measurement": "local skin reaction to treatment", "setting": "mouse, in vivo", "result": "did not experience any noticeable local skin reaction"}]}]}
